Measurements published in patent publication US6737383B1, “Herbicidal oxadiazolidines” (priority 1999, dated 2004).

Legend:
[1] = tested on: corn; assay: Test B pre/postemergence corn; assay type: in vivo, Zea mays
How it was run: (§1)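 Herbicidal effect was estimated by eye on a ten-point control scale after plants spent twelve to sixteen days in a greenhouse following soil or foliar treatment. Foliar sprays targeted plants at one to four leaves; all doses were formulated in a non-phytotoxic solvent with surfactant.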

[2] = tested on: giant foxtail; assay: Test B pre/postemergence giant foxtail; assay type: in vivo, Setaria faberii
How it was run: as §1

[3] = tested on: surinam grass; assay: Test B pre/postemergence surinam grass; assay type: in vivo, Brachiaria decumbens
How it was run: as §1

[4] = tested on: bedstraw; assay: Test B pre/postemergence bedstraw; assay type: in vivo, Galium aparine
How it was run: as §1

[5] = tested on: pigweed; assay: Test B pre/postemergence pigweed; assay type: in vivo, Amaranthus retroflexus
How it was run: as §1

[6] = tested on: sugar beet; assay: Test B pre/postemergence sugar beet; assay type: in vivo, Beta vulgaris
How it was run: as §1

[7] = tested on: wheat; assay: Test B pre/postemergence wheat; assay type: in vivo, Triticum aestivum
How it was run: as §1

[8] = tested on: rape; assay: Test B pre/postemergence rape; assay type: in vivo, Brassica napus
How it was run: as §1

[9] = tested on: morningglory; assay: Test B pre/postemergence morningglory; assay type: in vivo, Ipomoea hederacea
How it was run: as §1

[10] = tested on: soybean; assay: Test B pre/postemergence soybean; assay type: in vivo, Glycine max
How it was run: as §1

[11] = tested on: purple nutsedge; assay: Test B pre/postemergence purple nutsedge; assay type: in vivo, Cyperus rotundus
How it was run: as §1

[12] = tested on: velvetleaf; assay: Test B pre/postemergence velvetleaf; assay type: in vivo, Abutilon theophrasti
How it was run: as §1

[13] = tested on: wild oat; assay: Test B pre/postemergence wild oat; assay type: in vivo, Avena fatua
How it was run: as §1

[14] = tested on: cocklebur; assay: Test B pre/postemergence cocklebur; assay type: in vivo, Xanthium strumarium
How it was run: as §1

[15] = tested on: blackgrass; assay: Test B pre/postemergence blackgrass; assay type: in vivo, Alopecurus myosuroides
How it was run: as §1

[16] = tested on: crabgrass; assay: Test B pre/postemergence crabgrass; assay type: in vivo, Digitaria sanguinalis
How it was run: as §1

[17] = Postemergence, Rate 62 g/ha, scale 0 to 10, 0 is no effect, 10 is complete control
[18] = Postemergence, Rate 125 g/ha, scale of 0 to 10 where 0 is no effect and 10 is complete control
[19] = Preemergence, Rate 62 g/ha, scale of 0 to 10 where 0 is no effect and 10 is complete control
[20] = Preemergence, Rate 125 g/ha, scale of 0 to 10 where 0 is no effect and 10 is complete control
[21] = Preemergence, Rate 250 g/ha, scale 0 (no effect) to 10 (complete control)
[22] = Rate 250 g/ha, Postemergence, scale 0 to 10, 0 is no effect, 10 is complete control
[23] = Rate 500 g/ha, Postemergence, scale 0 to 10, 0 is no effect, 10 is complete control
[24] = Preemergence, Rate 500 g/ha, scale of 0 to 10 where 0 is no effect and 10 is complete control

In the case of CC(C)N(C(=O)n1oc(=O)n(C[C@H](C)Cl)c1=O)c1ccc(F)cc1F [Compound 714], the “Plant response rating, Corn” value [1, 17] is reported as 0, the “Corn plant response rating” value [1, 18] is reported as 0 and the “Corn plant response rating” value [1, 19] is reported as 0. For the same compound, the “Plant response rating, Corn” value [1, 20] was 0, the “Corn plant response rating” value [1, 21] was 5 and the “Corn plant response rating” value [1, 22] was 0. The “Corn plant response rating” value [1, 23] was 0, the “Plant response rating, Giant foxtail” value [2, 17] was 6 and the “Giant foxtail plant response rating” value [2, 18] was 6. The “Giant foxtail plant response rating” value [2, 19] was 10, the “Plant response rating, Giant foxtail” value [2, 20] was 10 and the “Giant foxtail plant response rating” value [2, 21] was 10. The “Giant foxtail plant response rating” value [2, 22] was 7, the “Giant foxtail plant response rating” value [2, 23] was 8 and the “Plant response rating, B. signalgrass” value [3, 17] was 2. For the same compound, the “B. signalgrass plant response rating” value [3, 18] was 2, the “B. signalgrass plant response rating” value [3, 19] was 7 and the “Plant response rating, B. signalgrass” value [3, 20] was 9. For the same compound, the “B. signalgrass plant response rating” value [3, 21] was 10, the “Plant response rating, B. signalgrass” value [3, 24] was 10 and the “B. signalgrass plant response rating” value [3, 22] was 6. The “B. signalgrass plant response rating” value [3, 23] was 6, the “Bedstraw plant response rating” value [4, 18] was 3 and the “Bedstraw plant response rating” value [4, 19] was 0. For the same compound, the “Plant response rating, Bedstraw” value [4, 20] was 8, the “Bedstraw plant response rating” value [4, 21] was 9 and the “Plant response rating, Redroot pigweed” value [5, 17] was 5. For the same compound, the “Redroot pigweed plant response rating” value [5, 18] was 8, the “Redroot pigweed plant response rating” value [5, 19] was 10 and the “Plant response rating, Redroot pigweed” value [5, 20] was 9. For the same compound, the “Redroot pigweed plant response rating” value [5, 21] was 10, the “Redroot pigweed plant response rating” value [5, 22] was 9 and the “Redroot pigweed plant response rating” value [5, 23] was 9. For the same compound, the “Plant response rating, Sugarbeets” value [6, 17] was 0, the “Sugarbeets plant response rating” value [6, 18] was 6 and the “Sugarbeets plant response rating” value [6, 19] was 2. The “Plant response rating, Sugarbeets” value [6, 20] was 4, the “Sugarbeets plant response rating” value [6, 21] was 4 and the “Sugarbeets plant response rating” value [6, 22] was 7. The “Sugarbeets plant response rating” value [6, 23] was 7, the “Plant response rating, Wheat” value [7, 17] was 0 and the “Wheat plant response rating” value [7, 18] was 0. The “Wheat plant response rating” value [7, 19] was 0, the “Plant response rating, Wheat” value [7, 20] was 4 and the “Wheat plant response rating” value [7, 21] was 6. The “Wheat plant response rating” value [7, 22] was 3, the “Wheat plant response rating” value [7, 23] was 6 and the “Plant response rating, Rape” value [8, 17] was 5. The “Rape plant response rating” value [8, 18] was 5, the “Rape plant response rating” value [8, 19] was 2 and the “Plant response rating, Rape” value [8, 20] was 3. For the same compound, the “Rape plant response rating” value [8, 21] was 6, the “Rape plant response rating” value [8, 22] was 8 and the “Rape plant response rating” value [8, 23] was 9. For the same compound, the “Plant response rating, Morningglory” value [9, 17] was 0, the “Morningglory plant response rating” value [9, 19] was 0 and the “Plant response rating, Morningglory” value [9, 20] was 2. For the same compound, the “Morningglory plant response rating” value [9, 21] was 0, the “Morningglory plant response rating” value [9, 22] was 2 and the “Morningglory plant response rating” value [9, 23] was 2. For the same compound, the “Plant response rating, Soybean” value [10, 17] was 2, the “Soybean plant response rating” value [10, 18] was 4 and the “Soybean plant response rating” value [10, 19] was 0. The “Plant response rating, Soybean” value [10, 20] was 0, the “Soybean plant response rating” value [10, 21] was 0 and the “Soybean plant response rating” value [10, 22] was 4. For the same compound, the “Soybean plant response rating” value [10, 23] was 3, the “Plant response rating, Nutsedge” value [11, 17] was 0 and the “Nutsedge plant response rating” value [11, 18] was 0. The “Nutsedge plant response rating” value [11, 19] was 0, the “Plant response rating, Nutsedge” value [11, 20] was 0 and the “Nutsedge plant response rating” value [11, 21] was 0. For the same compound, the “Nutsedge plant response rating” value [11, 22] was 5, the “Nutsedge plant response rating” value [11, 23] was 5 and the “Plant response rating, Velvetleaf” value [12, 17] was 2. The “Velvetleaf plant response rating” value [12, 18] was 2, the “Velvetleaf plant response rating” value [12, 19] was 6 and the “Plant response rating, Velvetleaf” value [12, 20] was 5. The “Velvetleaf plant response rating” value [12, 21] was 2, the “Velvetleaf plant response rating” value [12, 22] was 2 and the “Velvetleaf plant response rating” value [12, 23] was 3. For the same compound, the “Plant response rating, Wild oats” value [13, 17] was 0, the “Wild oats plant response rating” value [13, 18] was 0 and the “Wild oats plant response rating” value [13, 19] was 0. For the same compound, the “Plant response rating, Wild oats” value [13, 20] was 4, the “Wild oats plant response rating” value [13, 21] was 6 and the “Wild oats plant response rating” value [13, 22] was 4. The “Wild oats plant response rating” value [13, 23] was 9, the “Plant response rating, Cocklebur” value [14, 17] was 0 and the “Cocklebur plant response rating” value [14, 18] was 2. For the same compound, the “Cocklebur plant response rating” value [14, 19] was 0, the “Plant response rating, Cocklebur” value [14, 20] was 0 and the “Cocklebur plant response rating” value [14, 21] was 0. The “Plant response rating, Cocklebur” value [14, 24] was 0, the “Cocklebur plant response rating” value [14, 22] was 2 and the “Cocklebur plant response rating” value [14, 23] was 3. The “Plant response rating, Blackgrass” value [15, 17] was 7, the “Blackgrass plant response rating” value [15, 18] was 7 and the “Blackgrass plant response rating” value [15, 19] was 7. For the same compound, the “Plant response rating, Blackgrass” value [15, 20] was 8, the “Blackgrass plant response rating” value [15, 21] was 9 and the “Plant response rating, Blackgrass” value [15, 24] was 9. For the same compound, the “Blackgrass plant response rating” value [15, 22] was 6, the “Blackgrass plant response rating” value [15, 23] was 7 and the “Plant response rating, Crabgrass” value [16, 17] was 4. The “Crabgrass plant response rating” value [16, 18] was 9, the “Crabgrass plant response rating” value [16, 19] was 10 and the “Plant response rating, Crabgrass” value [16, 20] was 10. The “Crabgrass plant response rating” value [16, 21] was 10, the “Crabgrass plant response rating” value [16, 22] was 9 and the “Crabgrass plant response rating” value [16, 23] was 9.
